Data reported in patent US8299048B2, “Hexahydrocyclopentyl[f]indazole sulfonamides and derivatives thereof as selective glucocorticoid receptor modulators” (Merck Sharp & Dohme Corp., priority 2008, dated 2012).

Target: T1, glucocorticoid receptor (Homo sapiens, UniProt P04150)
T1 construct: endogenous in cells
T1 sequence (P04150 1-777): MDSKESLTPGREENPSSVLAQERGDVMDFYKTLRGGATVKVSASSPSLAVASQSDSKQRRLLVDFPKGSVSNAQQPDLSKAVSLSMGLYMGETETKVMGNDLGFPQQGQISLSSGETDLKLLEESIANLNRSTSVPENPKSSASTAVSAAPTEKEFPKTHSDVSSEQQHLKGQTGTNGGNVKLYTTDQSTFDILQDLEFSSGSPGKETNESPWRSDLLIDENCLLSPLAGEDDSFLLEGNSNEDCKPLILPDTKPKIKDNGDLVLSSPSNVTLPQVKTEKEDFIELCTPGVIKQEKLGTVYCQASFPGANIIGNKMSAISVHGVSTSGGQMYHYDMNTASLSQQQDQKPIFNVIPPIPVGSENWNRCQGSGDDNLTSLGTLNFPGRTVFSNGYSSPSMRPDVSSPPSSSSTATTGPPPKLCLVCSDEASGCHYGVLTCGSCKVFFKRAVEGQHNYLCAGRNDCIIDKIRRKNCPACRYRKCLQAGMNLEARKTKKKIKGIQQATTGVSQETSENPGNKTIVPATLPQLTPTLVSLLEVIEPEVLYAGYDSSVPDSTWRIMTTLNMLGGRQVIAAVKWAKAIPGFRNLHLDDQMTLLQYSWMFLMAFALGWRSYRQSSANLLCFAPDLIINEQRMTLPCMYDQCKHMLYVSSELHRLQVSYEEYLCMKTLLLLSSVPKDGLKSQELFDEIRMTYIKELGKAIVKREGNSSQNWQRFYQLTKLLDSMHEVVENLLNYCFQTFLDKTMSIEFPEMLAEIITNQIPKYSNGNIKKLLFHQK
Assay: Ligand binding assay (GR BIND)
In short: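 Cytosol from freeze–thawed cells in TEGM (pH 7.2, 10 mM molybdate) was incubated overnight at 4 °C with compound and [3H]-dexamethasone trace (added as 6 nM solution), 2% EtOH final. Bound ligand was captured on hydroxylapatite, filtered, washed and scintillation counted. Values were calculated with dexamethasone as reference.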

Row | SMILES | Ki [nM]
1 | C[C@]12Cc3cnn(-c4ccc(F)cc4)c3C=C1CC[C@@H]2CN(CC1CCCO1)S(=O)(=O)c1ccc(C(N)=O)cc1 (stereo partly drawn) [Example 191, 4-{[{[(4αR,5S)-1-(4-fluorophenyl)-4α-methyl-1,4,4α,5,6,7-hexahydrocyclopenta[f]indazol-5-yl]methyl}(tetrahydrofuran-2-ylmethyl)amino]sulfonyl}benzamide] | 2
2 | C[C@]12Cc3cnn(-c4ccc(F)cc4)c3C=C1CC[C@@H]2CN(CC#N)S(=O)(=O)c1ccccc1C(F)(F)F [Example 54, N-(cyanomethyl)-N-{[(4αR,5S)-1-(4-fluorophenyl)-4α-methyl-1,4,4α,5,6,7-hexahydrocyclopenta[f]indazol-5-yl]methyl}-2-(trifluoromethyl)benzenesulfonamide] | 8.5
3 | C[C@]12Cc3cnn(-c4ccc(F)cc4)c3C=C1CC[C@@H]2CN(CC1CC1)S(=O)(=O)/C=C/c1ccccc1 [Example 13, (E)-N-(cyclopropylmethyl)-N-{[(4αR,5S)-1-(4-fluorophenyl)-4α-methyl-1,4,4α,5,6,7-hexahydrocyclopenta[f]indazol-5-yl]methyl}-2-phenylethylenesulfonamide] | 0.6
4 | C[C@]12Cc3cnn(-c4ccc(F)cc4)c3C=C1CC[C@@H]2CNS(=O)(=O)Cc1cccnc1 [Example 169, N-{[(4αR,5S)-1-(4-fluorophenyl)-4α-methyl-1,4,4α,5,6,7-hexahydrocyclopenta[f]indazol-5-yl]methyl}-1-pyridin-3-ylmethanesulfonamide] | 20.9
5 | C[C@]12Cc3cnn(-c4ccc(F)cc4)c3C=C1CC[C@@H]2CN(CC#N)S(=O)(=O)c1ccc(F)cc1F [Example 51, N-(cyanomethyl)-2,4-difluoro-N-{[(4αR,5S)-1-(4-fluorophenyl)-4α-methyl-1,4,4α,5,6,7-hexahydrocyclopenta[f]indazol-5-yl]methyl}benzenesulfonamide] | 2.5
6 | C[C@]12Cc3cnn(-c4ccc(F)cc4)c3C=C1CC[C@@H]2CN(CC#N)S(=O)(=O)c1cc(Cl)c(Cl)s1 [Example 24, 4,5-dichloro-N-(cyanomethyl)-N-{[(4αR,5S)-1-(4-fluorophenyl)-4α-methyl-1,4,4α,5,6,7-hexahydrocyclopenta[f]indazol-5-yl]methyl}thiophene-2-sulfonamide] | 5.3
7 | C[C@]12Cc3cnn(-c4ccc(F)cc4)c3C=C1CC[C@@H]2CN(CC#N)S(=O)(=O)c1ccc(F)c(F)c1 [Example 25, N-(cyanomethyl)-3,4-difluoro-N-{[(4αR,5S)-1-(4-fluorophenyl)-4α-methyl-1,4,4α,5,6,7-hexahydrocyclopenta[f]indazol-5-yl]methyl}benzenesulfonamide] | 2.5
8 | C[C@]12Cc3cnn(-c4ccc(F)cc4)c3C=C1CC[C@@H]2CN(CC#N)S(=O)(=O)c1cccc2ccccc12 [Example 40, N-(cyanomethyl)-N-{[(4αR,5S)-1-(4-fluorophenyl)-4α-methyl-1,4,4α,5,6,7-hexahydrocyclopenta[f]indazol-5-yl]methyl}naphthalene-1-sulfonamide] | 10.5
9 | C[C@]12Cc3cnn(-c4ccc(F)cc4)c3C=C1CC[C@@H]2CN(CC#N)S(=O)(=O)c1ccccc1-c1ccccc1 [Example 53, N-(cyanomethyl)-N-{[(4αR,5S)-1-(4-fluorophenyl)-4α-methyl-1,4,4α,5,6,7-hexahydrocyclopenta[f]indazol-5-yl]methyl}biphenyl-2-sulfonamide] | 3.7
10 | C[C@]12Cc3cnn(-c4ccc(F)cc4)c3C=C1CC[C@@H]2CN(CC#N)S(=O)(=O)c1ccccc1C#N [Example 55] | 2.7
11 | C[C@]12Cc3cnn(-c4ccc(F)cc4)c3C=C1CC[C@@H]2CN(CC1(O)CC1)S(=O)(=O)c1ccccc1F [Example 200, 2-fluoro-N-{[(4αR,5S)-1-(4-fluorophenyl)-4α-methyl-1,4,4α,5,6,7-hexahydrocyclopenta[f]indazol-5-yl]methyl}-N-[(1-hydroxycyclopropyl)methyl]benzenesulfonamide] | 1.8
12 | C[C@]12Cc3cnn(-c4ccc(F)cc4)c3C=C1CC[C@@H]2CN(CCc1ccccn1)S(=O)(=O)Cc1ccccc1C(N)=O [Example 196, 2-({[{[(4αR,5S)-1-(4-fluorophenyl)-4α-methyl-1,4,4α,5,6,7-hexahydrocyclopenta[f]indazol-5-yl]methyl}(2-pyridin-2-ylethyl)amino]sulfonyl}methyl)benzamide] | 2.7
13 | Cn1cc(S(=O)(=O)N(CC2CCCO2)C[C@H]2CCC3=Cc4c(cnn4-c4ccc(F)cc4)C[C@@]32C)c(C(F)(F)F)n1 (stereo partly drawn) [Example 175, N-{[(4αR,5S)-1-(4-fluorophenyl)-4α-methyl-1,4,4α,5,6,7-hexahydrocyclopenta[f]indazol-5-yl]methyl}-1-methyl-N-(tetrahydrofuran-2-ylmethyl)-3-(trifluoromethyl)-1H-pyrazole-4-sulfonamide] | 1
14 | C[C@]12Cc3cnn(-c4ccc(F)cc4)c3C=C1CC[C@@H]2CN(CC#N)S(=O)(=O)c1ccc(F)cc1 [Example 46, N-(cyanomethyl)-4-fluoro-N-{[(4αR,5S)-1-(4-fluorophenyl)-4α-methyl-1,4,4α,5,6,7-hexahydrocyclopenta[f]indazol-5-yl]methyl}benzenesulfonamide] | 0.7
15 | CCN(C[C@H]1CCC2=Cc3c(cnn3-c3ccc(F)cc3)C[C@@]21C)S(=O)(=O)CC(F)(F)F [Example 179, N-ethyl-2,2,2-trifluoro-N-{[(4αR,5S)-1-(4-fluorophenyl)-4α-methyl-1,4,4α,5,6,7-hexahydrocyclopenta[f]indazol-5-yl]methyl}ethanesulfonamide] | 1.2
16 | C[C@]12Cc3cnn(-c4ccc(F)cc4)c3C=C1CC[C@@H]2CN(CC#N)S(=O)(=O)c1cccc(C#N)c1 [Example 36, 3-cyano-N-(cyanomethyl)-N-{[(4αR,5S)-1-(4-fluorophenyl)-4α-methyl-1,4,4α,5,6,7-hexahydrocyclopenta[f]indazol-5-yl]methyl}benzenesulfonamide] | 2.5
17 | C[C@H](O)CN(C[C@H]1CCC2=Cc3c(cnn3-c3ccc(F)cc3)C[C@@]21C)S(=O)(=O)Cc1ccccc1C(N)=O [Example 185, 2-[({{[(4αR,5S)-1-(4-fluorophenyl)-4α-methyl-1,4,4α,5,6,7-hexahydrocyclopenta[f]indazol-5-yl]methyl}[(2S)-2-hydroxypropyl]amino}sulfonyl)methyl]benzamide] | 13.1
18 | CC([C@H]1CCC2=Cc3c(cnn3-c3ccc(F)cc3)C[C@@]21C)N(CCc1ccccn1)S(=O)(=O)Cc1cccnc1 (stereo partly drawn) [Example 197, N-{1-[(4αR)-1-(4-fluorophenyl)-4α-methyl-1,4,4α,5,6,7-hexahydrocyclopenta[f]indazol-5-yl]ethyl}-1-pyridin-3-yl-N-(2-pyridin-2-ylethyl)methanesulfonamide] | 4.4
19 | Cc1noc(C)c1S(=O)(=O)N(C)C[C@H]1CCC2=Cc3c(cnn3-c3ccc(F)cc3)C[C@@]21C [Example 176, N-{[(4αR,5S)-1-(4-fluorophenyl)-4α-methyl-1,4,4α,5,6,7-hexahydrocyclopenta[f]indazol-5-yl]methyl}-N,3,5-trimethylisoxazole-4-sulfonamide] | 1.3
20 | C[C@]12Cc3cnn(-c4ccc(F)cc4)c3C=C1CC[C@@H]2CN(CC#N)S(=O)(=O)c1cccc(Cl)c1Cl [Example 26, 2,3-dichloro-N-(cyanomethyl)-N-{[(4αR,5S)-1-(4-fluorophenyl)-4α-methyl-1,4,4α,5,6,7-hexahydrocyclopenta[f]indazol-5-yl]methyl}benzenesulfonamide] | 9.7
21 | CCN(C[C@H]1CCC2=Cc3c(cnn3-c3ccc(F)cc3)C[C@@]21C)S(=O)(=O)c1c(C)noc1C [Example 178, N-ethyl-N-{[(4αR,5S)-1-(4-fluorophenyl)-4α-methyl-1,4,4α,5,6,7-hexahydrocyclopenta[f]indazol-5-yl]methyl}-3,5-dimethylisoxazole-4-sulfonamide] | 1.2
22 | C[C@]12Cc3cnn(-c4ccc(F)cc4)c3C=C1CC[C@@H]2CN(CCO)S(=O)(=O)c1cc(Cl)c(Cl)s1 [Example 58, 4,5-dichloro-N-{[(4αR,5S)-1-(4-fluorophenyl)-4α-methyl-1,4,4α,5,6,7-hexahydrocyclopenta[f]indazol-5-yl]methyl}-N-(2-hydroxyethyl)thiophene-2-sulfonamide] | 2.3
23 | COCCN(C[C@H]1CCC2=Cc3c(cnn3-c3ccc(F)cc3)C[C@@]21C)S(=O)(=O)c1c(C)noc1C [Example 173, N-{[(4αR,5S)-1-(4-fluorophenyl)-4α-methyl-1,4,4α,5,6,7-hexahydrocyclopenta[f]indazol-5-yl]methyl}-N-(2-methoxyethyl)-3,5-dimethylisoxazole-4-sulfonamide] | 1.3
24 | C[C@]12Cc3cnn(-c4ccc(F)cc4)c3C=C1CC[C@@H]2CN(CC#N)S(=O)(=O)c1ccccc1F [Example 43, N-(cyanomethyl)-2-fluoro-N-{[(4αR,5S)-1-(4-fluorophenyl)-4α-methyl-1,4,4α,5,6,7-hexahydrocyclopenta[f]indazol-5-yl]methyl}benzenesulfonamide] | 2.2
